{
  "source": "paper PMC9897767",
  "about": "“Assessments of CYP‑inhibition‑based drug–drug interaction between vonoprazan and poziotinib in vitro and in vivo” (Pharmaceutical Biology, 2023)",
  "key": {"[1]": {"assay": "Pharmacokinetics of vonoprazan and metabolite M-I in rats with and without poziotinib pretreatment", "type": "in vivo, Sprague-Dawley (SD) rats", "settings": "vonoprazan; for CL/F / Cmax / Tmax / half-life / MRT last / MRT inf / Vd/F: male, Sprague-Dawley, rat, serum, po, 10 mg/kg; for CL/F: 10 mg/kg gavage, read-out: CLz/F (converted); for MRT last: read-out: MRT(0-t); for MRT inf: read-out: MRT(0-∞); for Vd/F: read-out: Vz/F", "procedure": "Twelve healthy male SD rats were randomly divided into two groups. The poziotinib group was given 5 mg/kg poziotinib by gavage every day for 7 days, and rats in the control group only received equal amounts of 0.5% CMC-Na solution in the pre-treatment time. Then animals in the poziotinib group and the control group were fasted for 12 h. On Day 8, the poziotinib group was given poziotinib (5 mg/kg) by gavage, and vonoprazan (10 mg/kg) was given 30 min later, while the control group was only given vonoprazan (10 mg/kg) by gavage. Tail venous blood (300 µL) was collected at 0.083, 0.25, 0.5, 1, 2, 3, 4, 6, 12, and 24 h after the administration of vonoprazan, and then the blood was centrifuged at 4,000 rpm, and 4 °C for 10 min. The serum was collected and stored at −80 °C. After thawing at room temperature, 100 μL of the serum sample was removed and 200 μL of acetonitrile containing diazepam (500 ng/mL) was then added to precipitate proteins. After vortexing, 150 μL of supernatant was removed and centrifuged at 13,000 rpm for 5 min. Then, 2 μL of sample was used for the detection of vonoprazan and its main metabolite M-I by UPLC-MS/MS.\nDAS (version 3.2.8; The People’s Hospital of Lishui) was used to fit and calculate the pharmacokinetic parameters of vonoprazan and its metabolite M-I, which include peak time (Tmax), maximum plasma concentration (Cmax), elimination half-life (T1/2), area under the drug-time curve (AUC) and clearance rate (CLz/F). SPSS (version 25.0, IBM, USA) was used for the data processing. Student’s t-test was used to compare the normal distribution of the data, and the Mann–Whitney U test was used for the nonnormal distribution of the data. *p < 0.05 indicates a significant difference compared to the control group and **p < 0.001 indicates an extremely significant difference compared to the control group.\nACQUITY I-Class UPLC and Waters XEVO TQD MS (Milford, MA, USA) were used for the detection of vonoprazan and M-I with an ACQUITY UPLC BEH C18 chromatographic column (50 × 2.1 mm, 1.7 μm) at 40 °C. […] The injection volume of the sample was 2 μL. The scanning method was multiple reaction monitoring (MRM) with detection in positive ion mode and an ESI + ion source. Other mass spectrometry parameters were as follows: capillary voltage 2.0 kV, ion source temperature 150 °C, dissolvent temperature 500 °C, argon flow rate 0.15 mL/min, cone hole gas flow 50 L/h, solvent gas flow 1000 L/h. The precursor ion and product ion were m/z 346.04→314.97 for vonoprazan, m/z 347.50→205.00 for M-I, and m/z 285.10→193.10 for internal standard (IS), diazepam."}, "[2]": {"assay": "Michaelis-Menten kinetics of vonoprazan in rat liver microsomes", "type": "in vitro ADME", "settings": "pH 7.4, vonoprazan as substrate", "procedure": "Rat liver microsomes (RLMs) were prepared according to the previously reported differential centrifugation method (Eriksson [1978]; Wang et al. [2018]), and the concentration of total protein in the RLM was determined to be 28 mg/mL by the BCA protein quantitative method. Then, a 200 μL incubation system was established, which consisted of 5 μg RLM, 100 mM phosphate buffer (pH 7.4), 10 μM vonoprazan (close to its Km), and a series gradient concentration of poziotinib (100, 50, 10, 5, 1, 0.1, 0.01 μM). The mixture was preincubated at 37 °C for 5 min, and NADPH (1 mM) was then added to start the reaction after vortexing. […] Vonoprazan and its metabolite M-I were detected by UPLC-MS/MS according to the previously reported method (Shen et al. [2020]). […]\nTo better understand the inhibitory mechanism of poziotinib on vonoprazan, a series of gradient concentrations of vonoprazan were used in the reaction, which included 1/4-, 1/2-, 1-, and 2-times the Km value. […] The above mentioned UPLC-MS/MS method was used for the quantification of the vonoprazan metabolite M-I. Ki and αKi values were calculated, and the inhibitory mechanism was analyzed using a primary Lineweaver-Burk diagram, Dixon diagram, and secondary Lineweaver-Burk diagram by GraphPad Prism 9.0."}, "[3]": {"parameters": "method as in Suzuki et al. ([2021])", "settings": "kidney transplant recipients, after switching from rabeprazole to vonoprazan coadministration; ref Suzuki et al. ([2021]); cited from earlier work"}, "[4]": {"system": "metabolism of vonoprazan in rat liver microsomes", "assay": "Inhibition of vonoprazan metabolism by poziotinib in rat liver microsomes", "type": "in vitro ADME", "procedure": "Rat liver microsomes (RLMs) were prepared according to the previously reported differential centrifugation method (Eriksson [1978]; Wang et al. [2018]), and the concentration of total protein in the RLM was determined to be 28 mg/mL by the BCA protein quantitative method. Then, a 200 μL incubation system was established, which consisted of 5 μg RLM, 100 mM phosphate buffer (pH 7.4), 10 μM vonoprazan (close to its Km), and a series gradient concentration of poziotinib (100, 50, 10, 5, 1, 0.1, 0.01 μM). The mixture was preincubated at 37 °C for 5 min, and NADPH (1 mM) was then added to start the reaction after vortexing. The mixture was placed at 37 °C in a water bath for 30 min with shaking, and 200 μL acetonitrile was added to terminate the reaction and precipitate the protein. Diazepam-acetonitrile solution was then added accurately to serve as the internal standard. After vortexing, the mixture was centrifuged at 12,000 rpm for 10 min and the supernatant was transferred to the sample bottle for further separation. Vonoprazan and its metabolite M-I were detected by UPLC-MS/MS according to the previously reported method (Shen et al. [2020]). The nonlinear regression equation was fitted with GraphPad Prism 9.0 software to calculate the IC50 value of poziotinib.\nTo better understand the inhibitory mechanism of poziotinib on vonoprazan, a series of gradient concentrations of vonoprazan were used in the reaction, which included 1/4-, 1/2-, 1-, and 2-times the Km value. Similarly, concentrations of 0, 1/4-, 1/2-, 1-, and 2-times the IC50 of poziotinib were also included in the experiment. The above mentioned UPLC-MS/MS method was used for the quantification of the vonoprazan metabolite M-I. Ki and αKi values were calculated, and the inhibitory mechanism was analyzed using a primary Lineweaver-Burk diagram, Dixon diagram, and secondary Lineweaver-Burk diagram by GraphPad Prism 9.0."}, "[5]": {"settings": "oral 10 mg/kg, control group (no poziotinib)"}, "[6]": {"settings": "oral 10 mg/kg, poziotinib group (5 mg/kg oral pretreatment)"}, "[7]": {"settings": "oral 10 mg/kg, poziotinib 5 mg/kg pretreatment"}},
  "note": "Where two headings read alike, the source gives them in different places.",
  "data": [
    {"smiles": "CNCc1cc(-c2ccccc2F)n(S(=O)(=O)c2cccnc2)c1", "note": "[vonoprazan]", "values": [
      {"measurement": "CL/F", "setting": "[1]; control group", "value": 163, "unit": "L/h/kg"},
      {"measurement": "CL/F", "setting": "[1]; poziotinib pretreatment 5 mg/kg", "value": 25.8, "unit": "L/h/kg"},
      {"measurement": "Cmax", "setting": "[1]; [5]", "value": "0.00569 ± 0.00373", "unit": "µg/mL"},
      {"measurement": "Tmax", "setting": "[1]; [5]", "value": "0.63 ± 0.31", "unit": "h"},
      {"measurement": "half-life", "setting": "[1]; [5]", "value": "1.25 ± 0.77", "unit": "h"},
      {"measurement": "MRT last", "setting": "[1]; [5]", "value": "2.29 ± 0.36", "unit": "h"},
      {"measurement": "MRT inf", "setting": "[1]; [5]", "value": "2.29 ± 0.36", "unit": "h"},
      {"measurement": "Vd/F", "setting": "[1]; [5]", "value": "298 ± 191", "unit": "L/kg"},
      {"measurement": "Cmax", "setting": "[1]; [6]", "value": "0.0154 ± 0.00498", "unit": "µg/mL"},
      {"measurement": "Tmax", "setting": "[1]; [6]", "value": "1.92 ± 2.06", "unit": "h"},
      {"measurement": "half-life", "setting": "[1]; [6]", "value": "2.84 ± 1.44", "unit": "h"},
      {"measurement": "MRT last", "setting": "[1]; [6]", "value": "5.26 ± 1.77", "unit": "h"},
      {"measurement": "MRT inf", "setting": "[1]; [6]", "value": "5.51 ± 2.06", "unit": "h"},
      {"measurement": "Vd/F", "setting": "[1]; [6]", "value": "90.5 ± 27.3", "unit": "L/kg"},
      {"measurement": "AUC(0-T) increase, poziotinib group vs control group", "setting": "[1]; [7]", "value": 6.02, "unit": "fold"},
      {"measurement": "AUC(0-∞) increase, poziotinib group vs control group", "setting": "[1]; [7]", "value": 6.11, "unit": "fold"},
      {"measurement": "CLz/F reduction, poziotinib group vs control group", "setting": "[1]; [7]", "value": 84, "unit": "%"},
      {"measurement": "Cmax increase, poziotinib group vs control group", "setting": "[1]; [7]", "value": 2.7, "unit": "fold"},
      {"measurement": "MRT(0-T) increase, poziotinib group vs control group", "setting": "[1]; [7]", "value": 2.30, "unit": "fold"},
      {"measurement": "MRT(0-∞) increase, poziotinib group vs control group", "setting": "[1]; [7]", "value": 2.41, "unit": "fold"},
      {"measurement": "T1/2 increase, poziotinib group vs control group", "setting": "[1]; [7]", "value": 2.2, "unit": "fold"},
      {"measurement": "Tmax increase, poziotinib group vs control group", "setting": "[1]; [7]", "value": 3.0, "unit": "fold"},
      {"measurement": "Vz/F reduction, poziotinib group vs control group", "setting": "[1]; [7]", "value": 70, "unit": "%"},
      {"measurement": "Km at 30 min", "setting": "[2]", "value": 14.3, "unit": "µM"}
    ]},
    {"smiles": "C=CC[C@@H]1/C=C(\\C)C[C@H](C)C[C@H](OC)[C@H]2O[C@@](O)(C(=O)C(=O)N3CCCC[C@H]3C(=O)O[C@H](/C(C)=C/[C@@H]3CC[C@@H](O)[C@H](OC)C3)[C@H](C)[C@@H](O)CC1=O)[C@H](C)C[C@@H]2OC", "note": "[tacrolimus]", "values": [
      {"measurement": "increase of blood concentration of tacrolimus", "setting": "[3]", "value": 65.8, "unit": "%"}
    ]},
    {"smiles": "C=CC(=O)N1CCC(Oc2cc3c(Nc4ccc(Cl)c(Cl)c4F)ncnc3cc2OC)CC1", "note": "[poziotinib]", "values": [
      {"measurement": "inhibition mechanism", "setting": "[4]; Lineweaver-Burk plot", "value": "mixed model of noncompetitive and uncompetitive inhibition"},
      {"measurement": "Ki", "setting": "[4]; Lineweaver-Burk, slope of primary plot, read-out: inhibitory constant Ki", "value": 0.574, "unit": "µM"},
      {"measurement": "IC50 at 30 min", "setting": "[4]; pH 7.4, probe vonoprazan 10 μM (metabolite M-I measured), 10 μM vonoprazan, NADPH 1 mM, 37 °C 30 min", "value": 10.6, "unit": "µM"}
    ]}
  ]
}
